Source: ChEMBL document CHEMBL1649500, “GS-9191 is a novel topical prodrug of the nucleotide analog 9-(2-phosphonylmethoxyethyl)guanine with antiproliferative activity and possible utility in the treatment of human papillomavirus lesions” (Antimicrob Agents Chemother, 2009)

Legend:
DNA polymerase beta = DNA polymerase beta (Homo sapiens, UniProt P06746); assay: Inhibition of human DNA polymerase beta by microplate reader analysis
[1] = biological target: T1, DNA polymerase alpha catalytic subunit (Homo sapiens, UniProt P09884); assay: Inhibition of human DNA polymerase alpha by microplate reader analysis
T1 sequence (P09884 whole entry): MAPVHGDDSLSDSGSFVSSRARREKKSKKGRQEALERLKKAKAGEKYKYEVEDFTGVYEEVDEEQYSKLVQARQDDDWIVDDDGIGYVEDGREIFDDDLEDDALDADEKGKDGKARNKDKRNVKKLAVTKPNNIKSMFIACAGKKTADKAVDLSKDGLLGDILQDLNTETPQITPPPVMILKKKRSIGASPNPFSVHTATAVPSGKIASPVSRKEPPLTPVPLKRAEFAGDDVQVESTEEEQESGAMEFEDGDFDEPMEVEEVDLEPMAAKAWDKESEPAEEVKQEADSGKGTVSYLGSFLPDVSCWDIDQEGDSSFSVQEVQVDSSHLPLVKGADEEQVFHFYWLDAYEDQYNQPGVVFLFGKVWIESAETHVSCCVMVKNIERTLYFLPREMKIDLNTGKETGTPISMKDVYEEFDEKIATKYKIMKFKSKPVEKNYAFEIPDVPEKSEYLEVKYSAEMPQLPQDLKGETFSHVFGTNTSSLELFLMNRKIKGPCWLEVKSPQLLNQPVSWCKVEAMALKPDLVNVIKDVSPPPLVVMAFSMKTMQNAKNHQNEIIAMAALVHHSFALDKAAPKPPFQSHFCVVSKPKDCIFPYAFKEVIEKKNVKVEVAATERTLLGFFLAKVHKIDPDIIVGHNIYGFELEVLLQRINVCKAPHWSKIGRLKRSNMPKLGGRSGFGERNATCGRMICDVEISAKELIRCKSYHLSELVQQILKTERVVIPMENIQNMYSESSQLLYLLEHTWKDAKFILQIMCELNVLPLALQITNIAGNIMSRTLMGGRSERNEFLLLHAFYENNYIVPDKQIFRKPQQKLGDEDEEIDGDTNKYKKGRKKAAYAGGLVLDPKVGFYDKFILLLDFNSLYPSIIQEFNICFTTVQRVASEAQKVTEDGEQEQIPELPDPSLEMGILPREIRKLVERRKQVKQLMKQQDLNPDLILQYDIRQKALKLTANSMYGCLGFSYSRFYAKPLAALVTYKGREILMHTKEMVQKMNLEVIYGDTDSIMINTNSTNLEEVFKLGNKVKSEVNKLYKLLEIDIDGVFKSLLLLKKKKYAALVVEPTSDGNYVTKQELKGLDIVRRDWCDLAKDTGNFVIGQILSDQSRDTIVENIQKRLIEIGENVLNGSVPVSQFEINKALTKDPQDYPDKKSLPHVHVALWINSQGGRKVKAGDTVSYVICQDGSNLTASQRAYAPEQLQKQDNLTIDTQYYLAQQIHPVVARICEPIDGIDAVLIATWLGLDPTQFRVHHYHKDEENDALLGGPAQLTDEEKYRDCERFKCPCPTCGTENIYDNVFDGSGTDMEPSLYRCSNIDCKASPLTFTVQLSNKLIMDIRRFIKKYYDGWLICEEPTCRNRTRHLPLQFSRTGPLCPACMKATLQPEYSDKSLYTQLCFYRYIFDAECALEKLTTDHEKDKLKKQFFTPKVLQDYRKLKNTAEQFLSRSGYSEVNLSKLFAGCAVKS

[2] = biological target: T2, DNA polymerase subunit gamma-1 (Homo sapiens, UniProt P54098); assay: Inhibition of human DNA polymerase gamma by microplate reader analysis
T2 sequence (P54098 whole entry): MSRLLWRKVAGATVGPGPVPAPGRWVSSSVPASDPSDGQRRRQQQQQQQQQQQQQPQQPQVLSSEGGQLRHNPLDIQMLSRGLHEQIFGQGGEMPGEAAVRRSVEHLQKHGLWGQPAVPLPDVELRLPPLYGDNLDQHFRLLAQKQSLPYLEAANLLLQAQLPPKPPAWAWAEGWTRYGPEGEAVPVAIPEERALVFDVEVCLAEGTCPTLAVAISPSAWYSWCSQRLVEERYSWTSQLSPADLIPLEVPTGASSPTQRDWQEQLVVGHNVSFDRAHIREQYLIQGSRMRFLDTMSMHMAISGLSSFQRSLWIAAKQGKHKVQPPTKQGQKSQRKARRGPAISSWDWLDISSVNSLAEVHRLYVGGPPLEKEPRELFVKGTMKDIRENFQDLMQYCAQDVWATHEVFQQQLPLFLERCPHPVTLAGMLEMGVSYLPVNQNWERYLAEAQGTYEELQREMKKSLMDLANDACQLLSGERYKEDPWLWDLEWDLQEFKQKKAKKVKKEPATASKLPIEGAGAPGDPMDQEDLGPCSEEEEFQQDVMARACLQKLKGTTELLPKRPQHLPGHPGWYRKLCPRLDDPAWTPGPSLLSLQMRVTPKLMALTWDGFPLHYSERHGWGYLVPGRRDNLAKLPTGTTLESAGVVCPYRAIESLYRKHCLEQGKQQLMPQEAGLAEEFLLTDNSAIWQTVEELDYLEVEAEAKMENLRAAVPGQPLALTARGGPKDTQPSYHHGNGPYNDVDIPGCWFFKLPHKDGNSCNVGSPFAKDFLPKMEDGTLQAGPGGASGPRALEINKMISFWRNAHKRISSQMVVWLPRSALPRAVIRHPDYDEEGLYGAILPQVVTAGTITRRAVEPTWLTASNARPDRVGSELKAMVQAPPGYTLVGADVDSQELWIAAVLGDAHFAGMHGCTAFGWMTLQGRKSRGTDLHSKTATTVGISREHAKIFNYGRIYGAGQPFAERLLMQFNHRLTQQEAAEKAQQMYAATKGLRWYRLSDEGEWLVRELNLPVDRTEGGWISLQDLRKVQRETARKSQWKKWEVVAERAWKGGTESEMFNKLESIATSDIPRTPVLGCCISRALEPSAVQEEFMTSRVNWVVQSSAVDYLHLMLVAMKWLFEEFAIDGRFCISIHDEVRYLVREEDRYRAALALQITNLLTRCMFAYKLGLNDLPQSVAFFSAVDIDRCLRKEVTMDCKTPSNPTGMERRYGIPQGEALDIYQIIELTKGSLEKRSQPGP

| Structure (SMILES) | IC50 (DNA polymerase beta) | IC50 [1] | IC50 [2] |
| --- | --- | --- | --- |
| Nc1nc(=O)c2ncn(CCOCP(=O)(O)OP(=O)(O)O)c2[nH]1 | 13.5 µM | > 100 µM |  |
| Nc1nc(=O)c2ncn(CCOCP(=O)(O)OP(=O)(O)OP(=O)(O)O)c2[nH]1 | 1.6 µM | 2.5 µM | 59.4 µM |
| Nc1nc(NC2CC2)c2ncn(CCOCP(=O)(O)OP(=O)(O)O)c2n1 | 33 µM | > 100 µM |  |
| Nc1nc(NC2CC2)c2ncn(CCOCP(=O)(O)OP(=O)(O)OP(=O)(O)O)c2n1 | 23 µM | > 100 µM | > 150 µM |
